Measurements: patent US20240417729A1, “THERAPEUTIC TREATMENT FOR FRAGILE X-ASSOCIATED DISORDER” (University of Massachusetts, priority 2021, published 2024)
Values joined by “and” are separate entries in the source; they are usually repeats but may differ in a detail not shown here. Equal entries are not always repeated. “Also recorded” adds a separate entry of the source. Where two headings read alike, the source gives them in different places.

Experiments:
FMR1-217 RNA [1] = assay: RT-qPCR of FMR1-217 and full-length FMR1 in fully methylated FXS1 LCL (GM07365) treated with 5-AzadC and/or ASOs; type: cell-based, human; conditions: 5-AzadC (5-AzaC) 1 μM alone, 7 days, vs DMSO
Procedure: For each cell culture, 30×10^5 cells/mL were added in a final volume of 20 mL medium (RPMI 1640 medium (Sigma-Aldrich), supplemented with 15% FBS and 2.5% L-glutamine at 37° C. with 5% CO2) per T25 flask. 5-Aza-2′-deoxycytidine (5-AzaC) (Sigma-Aldrich, A3656) was added to the cell cultures (final concentration 1 μM) for 7 consecutive days. A 2 mM stock of 5-AzaC was made in DMSO. For each cell line, two independent treatments were performed (n=2). For the no treatment controls for each cell line, DMSO was added to the flasks. For samples with both 5-AzaC and ASO treatment, 80 nM ASOs or vehicle were added on Day 1 and either 5-AzaC or DMSO was added each day from Day 2 up to Day 9 at a final concentration of 1 μM. On Day 9 the cells were collected in 1×Phosphate buffered saline to proceed with RNA extraction or Western blotting.
(§1) One microgram (μg) of total RNA was primed with oligo(dT)20 to generate cDNA with a QuantiTect cDNA synthesis kit (Qiagen, #205311) using random hexamers (Table 3). qPCR was performed using the iTaq™ Universal SYBR® Green Supermix (BIO-RAD #1725122) on a QuantStudio 3 qPCR machine in duplicate.
(§2) Antisense oligonucleotides (ASOs) were dissolved in ultrapure distilled water to a final concentration of 10 μM. Before use, the ASOs were heated to 55° C. for 15 minutes and cooled at room temperature. ASOs were added, individually or in combinations, to LCL cell lines at a final concentration of 80 nM or 160 nM using Lipofectamine RNAIMAX® Transfection Reagent (Thermo Fisher Scientific, 13778030) and incubated at 37° C. with 5% CO2 for 16 hours in reduced serum medium. RPMI 1640 medium (Sigma-Aldrich), supplemented with 15% fetal bovine serum (FBS) was added for a total of 72 hours. The cells were collected after 72 hours of ASO treatment for RNA and protein extraction.
For each cell culture, 30×10^5 cells/mL were added to a final volume of 20 mL medium (RPMI 1640 medium (Sigma-Aldrich) supplemented with 15% fetal bovine serum (FBS) and 2.5% L-glutamine at 37° C. with 5% CO2) per T25 flask. 5-Aza-2′-deoxycytidine (5-AzadC) (Sigma-Aldrich, A3656) was added to the cell cultures (final concentration 1 μM) for 7 consecutive days. A 2 mM stock of 5-AzadC was made in DMSO. For each cell line, two independent treatments were performed (n=2). For the no treatment controls for each cell line, DMSO was added to the flasks. For samples with both 5-AzadC and ASO treatment, 80 nM or 160 nM ASOs or vehicle were added on Day 1 and either 5-AzadC or DMSO was added each day from Day 2 up to Day 9 at a final concentration of 1 μM. On Day 9 the cells were collected in 1× phosphate buffered saline to proceed with RNA extraction or Western blotting. […]

FMRP [2] = assay: Western blot of FMRP relative to GAPDH in FXS1 LCL (GM07365); type: cell-based, human; conditions: 5-AzadC 1 μM alone, 7 days
Procedure: For each cell culture, 30×10^5 cells/mL were added in a final volume of 20 mL medium (RPMI 1640 medium (Sigma-Aldrich), supplemented with 15% FBS and 2.5% L-glutamine at 37° C. with 5% CO2) per T25 flask. 5-Aza-2′-deoxycytidine (5-AzaC) (Sigma-Aldrich, A3656) was added to the cell cultures (final concentration 1 μM) for 7 consecutive days. A 2 mM stock of 5-AzaC was made in DMSO. For each cell line, two independent treatments were performed (n=2). For the no treatment controls for each cell line, DMSO was added to the flasks. […]
Cells were homogenized at 4° C. in RIPA buffer with incubation on ice for 10 minutes and dissociation by pipetting. […] Protein concentration was determined by BCA reagent. Proteins (10 μg) were diluted in SDS-bromophenol blue reducing buffer with 40 mM DTT and analyzed using western blotting on a 10% SDS-PAGE gel with the following antibodies: FMRP (Abcam, 1:2000) and GAPDH (Cell signaling, 1:2000) diluted in 1×TBST with 5% non-fat milk. […]
Cells were homogenized at 4° C. in RIPA buffer, with incubation on ice for 10 minutes and dissociation by pipetting. […] Protein concentration was determined using BCA reagent. […]
Cells were homogenized at 4° C. in radioimmunoprecipitation assay (RIPA) lysis buffer with incubation on ice for 10 minutes and dissociation by pipetting. […] Protein concentration was determined by BCA reagent.

FMR1-217 RNA [3] = assay: RT-qPCR of FMR1-217 and full-length FMR1 in partially methylated FXS2 LCL (GM06897); type: cell-based, human; conditions: 5-AzadC 1 μM, 7 days, vs DMSO
Procedure: as §1, §2
For each cell culture, 30×10^5 cells/mL were added to a final volume of 20 mL medium (RPMI 1640 medium (Sigma-Aldrich) supplemented with 15% fetal bovine serum (FBS) and 2.5% L-glutamine at 37° C. with 5% CO2) per T25 flask. 5-Aza-2′-deoxycytidine (5-AzadC) (Sigma-Aldrich, A3656) was added to the cell cultures (final concentration 1 μM) for 7 consecutive days. A 2 mM stock of 5-AzadC was made in DMSO. […]

FMRP [4] = assay: Western blot of FMRP relative to GAPDH in FXS2 LCL (GM06897); type: cell-based, human; conditions: 5-AzadC 1 μM, 7 days
Procedure: Antisense oligonucleotides (ASOs) were dissolved in ultrapure distilled water to a final concentration of 10 μM. Before use, the ASOs were heated to 55° C. for 15 minutes and cooled at room temperature. ASOs were added, individually or in combinations, to LCL cell lines at a final concentration of 80 nM or 160 nM using Lipofectamine RNAIMAX® Transfection Reagent (Thermo Fisher Scientific, 13778030) and incubated at 37° C. with 5% CO2 for 16 hours in reduced serum medium. RPMI 1640 medium (Sigma-Aldrich), supplemented with 15% fetal bovine serum (FBS) was added for a total of 72 hours. […]
Cells were homogenized at 4° C. in RIPA buffer, with incubation on ice for 10 minutes and dissociation by pipetting. The extract was centrifuged at 13,200 rpm for 10 minutes at 4° C., and the supernatant collected. Protein concentration was determined using BCA reagent. Proteins (10 μg) were diluted in SDS-bromophenol blue reducing buffer with 40 mM DTT and analyzed using western blotting with the following antibodies: FMRP (Millipore, mAb2160, 1: 1,000), FMRP (Abcam, ab17722, 1:1,000) and GAPDH (14C10, Cell Signaling Technology, mAb 2118, 1:2,000), diluted in 1×TBST with 5% non-fat milk. […]
Cells were homogenized at 4° C. in radioimmunoprecipitation assay (RIPA) lysis buffer with incubation on ice for 10 minutes and dissociation by pipetting. […] Protein concentration was determined by BCA reagent. […]

FMRP [5] = assay: Western blot of FMRP in FXS dermal fibroblasts (GM05131B); type: cell-based, human; conditions: 5-AzadC alone
Procedure: Cells were homogenized at 4° C. in RIPA buffer, with incubation on ice for 10 minutes and dissociation by pipetting. The extract was centrifuged at 13,200 rpm for 10 minutes at 4° C., and the supernatant collected. Protein concentration was determined using BCA reagent. Proteins (10 μg) were diluted in SDS-bromophenol blue reducing buffer with 40 mM DTT and analyzed using western blotting with the following antibodies: FMRP (Millipore, mAb2160, 1: 1,000), FMRP (Abcam, ab17722, 1:1,000) and GAPDH (14C10, Cell Signaling Technology, mAb 2118, 1:2,000), diluted in 1×TBST with 5% non-fat milk. Membranes were washed three times for 10 minutes with 1×TBST and incubated with anti-rabbit or anti-mouse secondary antibodies (Jackson, 1:10,000) at room temperature for 1 hour. Membranes were washed three times for 10 minutes with 1×TBST, developed with ECL-Plus (Piece), and scanned with GE Amersham Imager.
Cells were homogenized at 4° C. in radioimmunoprecipitation assay (RIPA) lysis buffer with incubation on ice for 10 minutes and dissociation by pipetting. The extract was centrifuged at 13,200 rpm for 10 minutes at 4° C., and the supernatant was collected. Protein concentration was determined by BCA reagent.

FMR1-217 RNA [6] = assay: RT-qPCR of FMR1-217 and FMR1 in FXS lung fibroblasts (GM07072) treated with 5-AzadC and ASOs 713/714; type: cell-based, human; conditions: fully methylated FMR1, 5-AzadC in the absence of ASOs
Procedure: FIG. 15D Lung fibroblasts derived from a FXS individual (GM07072, Coriell Institute) were cultured with 5-AzadC for 8 days and then treated with ASOs 713/714 (100 nM each) for 72 hours prior to RNA and protein extraction. RT-qPCR analysis of FMR1-217, FMR1, and GAPDH RNAs in lung fibroblasts treated with DMSO, ASOs 713/714, 5-AzadC, or the ASOs 713/714 plus 5-AzadC. The amounts of FMR1-217 and FMR1 were made relative to GAPDH. (*p<0.05, **p<0.01, ***p<0.001, one way ANOVA with multiple comparisons test).
FIG. 21D Lung fibroblasts derived from an FXS individual (GM07072, Coriell Institute) were cultured with 5-AzadC for 8 days and then treated with ASOs 713/714 (100 nM each) for 72 hours prior to RNA and protein extraction. RT-qPCR analysis of FMR1-217, FMR1, and GAPDH RNAs in lung fibroblasts treated with DMSO, ASOs 713/714, 5-AzadC, or the ASOs 713/714 plus 5-AzadC. The amounts of FMR1-217 and FMR1 were made relative to GAPDH (*P<0.05, **P<0.01, ***P<0.001, one-way ANOVA with multiple comparisons test).

[7] = test system: FMR1 transcripts (total, FMR1-205, FMR1-217); conditions: FXS iPSC-derived NSCs, reanalyzed from RNA-seq data of Vershkov et al., cited from earlier work
FMR1 RNA = conditions: FXS LCLs; 36 days of 5-AzadC; previous study; cited from earlier work

Nc1ncn([C@H]2C[C@H](O)[C@@H](CO)O2)c(=O)n1 [5-AzadC, 5-Aza-2′-deoxycytidine]
FMR1-217 (iso12) RNA level (FMR1-217 RNA [1]): synthesis of both FMR1 and FMR1-217 RNAs; also recorded: increased FMR1-217 RNA levels; also recorded: significant increases; also recorded: expected increase; also recorded: resulted in the expression of FMR1-217 and full-length FMR1 | full-length FMR1 (iso1) RNA level (FMR1-217 RNA [1]): synthesis of both FMR1 and FMR1-217 RNAs; also recorded: significant increases; also recorded: expected increase; also recorded: resulted in the expression of FMR1-217 and full-length FMR1 | FMR1-217 (iso12) RNA level (FMR1-217 RNA [1]; listed as 5-AzaC): increase in FMR1 iso12 | full-length FMR1 (iso1) RNA level (FMR1-217 RNA [1]; listed as 5-AzaC): increase in FMR1 iso1 | FMRP level (western blot, relative to GAPDH) (FMRP [2]): little or no FMRP; also recorded: increased FMR1-217 RNA levels but not FMRP; also recorded: In neither cell line did 5-AzadC treatment induce a significant increase in FMRP; also recorded: did not affect FMRP levels; also recorded: unaffected; also recorded: little FMRP; also recorded: modest increase; also recorded: modestly affected | full-length FMR1 RNA level (FMR1-217 RNA [3]): increase of only full-length FMR1 RNA | FMRP level (western blot, relative to GAPDH) (FMRP [4]): In neither cell line did 5-AzadC treatment induce a significant increase in FMRP | FMRP level (western blot) (FMRP [5]): no effect | FMR1-217 RNA level (FMR1-217 RNA [6]): increased | FMR1 RNA level (FMR1-217 RNA [6]): increased | FMR1 (total) reads ([7]; biologic duplicate): 9.9 TPM and 6.1 TPM | FMR1-217 reads ([7]; biologic duplicate): 6.9 TPM and 3.9 TPM | FMR1-217 RNA-seq reads (in words) [7]: clearly evident; also recorded: strong FMR1-217 expression; also recorded: reads corresponding to FMR1-217; also recorded: detected only in the 5-AzadC-treated samples | total FMR1 and FMR1-205 expression (in words) [7]: strong total FMR1 and FMR1-205 expression; also recorded: expressed | FMR1-217 RNA-seq reads (in words) ([7]; listed as 5-azadC): detected only in the 5-azadC-treated samples | FMRP level compared to that in TD cells (FMR1 RNA): even lower level | restoration of FMR1 RNA (FMR1 RNA): up to 40%
